{"source": "paper PMC9505425", "about": "“Targeting of the Mitochondrial TET1 Protein by Pyrrolo[3,2-b]pyrrole Chelators” (International Journal of Molecular Sciences, 2022)", "key": {"TET1 protein": {"molecular_target": "T1, TET1 protein (Homo sapiens, UniProt Q8NFU7)", "T1 construct": "purchased Active Motif, Carlsbad, CA, USA", "T1 sequence (Q8NFU7 whole entry)": "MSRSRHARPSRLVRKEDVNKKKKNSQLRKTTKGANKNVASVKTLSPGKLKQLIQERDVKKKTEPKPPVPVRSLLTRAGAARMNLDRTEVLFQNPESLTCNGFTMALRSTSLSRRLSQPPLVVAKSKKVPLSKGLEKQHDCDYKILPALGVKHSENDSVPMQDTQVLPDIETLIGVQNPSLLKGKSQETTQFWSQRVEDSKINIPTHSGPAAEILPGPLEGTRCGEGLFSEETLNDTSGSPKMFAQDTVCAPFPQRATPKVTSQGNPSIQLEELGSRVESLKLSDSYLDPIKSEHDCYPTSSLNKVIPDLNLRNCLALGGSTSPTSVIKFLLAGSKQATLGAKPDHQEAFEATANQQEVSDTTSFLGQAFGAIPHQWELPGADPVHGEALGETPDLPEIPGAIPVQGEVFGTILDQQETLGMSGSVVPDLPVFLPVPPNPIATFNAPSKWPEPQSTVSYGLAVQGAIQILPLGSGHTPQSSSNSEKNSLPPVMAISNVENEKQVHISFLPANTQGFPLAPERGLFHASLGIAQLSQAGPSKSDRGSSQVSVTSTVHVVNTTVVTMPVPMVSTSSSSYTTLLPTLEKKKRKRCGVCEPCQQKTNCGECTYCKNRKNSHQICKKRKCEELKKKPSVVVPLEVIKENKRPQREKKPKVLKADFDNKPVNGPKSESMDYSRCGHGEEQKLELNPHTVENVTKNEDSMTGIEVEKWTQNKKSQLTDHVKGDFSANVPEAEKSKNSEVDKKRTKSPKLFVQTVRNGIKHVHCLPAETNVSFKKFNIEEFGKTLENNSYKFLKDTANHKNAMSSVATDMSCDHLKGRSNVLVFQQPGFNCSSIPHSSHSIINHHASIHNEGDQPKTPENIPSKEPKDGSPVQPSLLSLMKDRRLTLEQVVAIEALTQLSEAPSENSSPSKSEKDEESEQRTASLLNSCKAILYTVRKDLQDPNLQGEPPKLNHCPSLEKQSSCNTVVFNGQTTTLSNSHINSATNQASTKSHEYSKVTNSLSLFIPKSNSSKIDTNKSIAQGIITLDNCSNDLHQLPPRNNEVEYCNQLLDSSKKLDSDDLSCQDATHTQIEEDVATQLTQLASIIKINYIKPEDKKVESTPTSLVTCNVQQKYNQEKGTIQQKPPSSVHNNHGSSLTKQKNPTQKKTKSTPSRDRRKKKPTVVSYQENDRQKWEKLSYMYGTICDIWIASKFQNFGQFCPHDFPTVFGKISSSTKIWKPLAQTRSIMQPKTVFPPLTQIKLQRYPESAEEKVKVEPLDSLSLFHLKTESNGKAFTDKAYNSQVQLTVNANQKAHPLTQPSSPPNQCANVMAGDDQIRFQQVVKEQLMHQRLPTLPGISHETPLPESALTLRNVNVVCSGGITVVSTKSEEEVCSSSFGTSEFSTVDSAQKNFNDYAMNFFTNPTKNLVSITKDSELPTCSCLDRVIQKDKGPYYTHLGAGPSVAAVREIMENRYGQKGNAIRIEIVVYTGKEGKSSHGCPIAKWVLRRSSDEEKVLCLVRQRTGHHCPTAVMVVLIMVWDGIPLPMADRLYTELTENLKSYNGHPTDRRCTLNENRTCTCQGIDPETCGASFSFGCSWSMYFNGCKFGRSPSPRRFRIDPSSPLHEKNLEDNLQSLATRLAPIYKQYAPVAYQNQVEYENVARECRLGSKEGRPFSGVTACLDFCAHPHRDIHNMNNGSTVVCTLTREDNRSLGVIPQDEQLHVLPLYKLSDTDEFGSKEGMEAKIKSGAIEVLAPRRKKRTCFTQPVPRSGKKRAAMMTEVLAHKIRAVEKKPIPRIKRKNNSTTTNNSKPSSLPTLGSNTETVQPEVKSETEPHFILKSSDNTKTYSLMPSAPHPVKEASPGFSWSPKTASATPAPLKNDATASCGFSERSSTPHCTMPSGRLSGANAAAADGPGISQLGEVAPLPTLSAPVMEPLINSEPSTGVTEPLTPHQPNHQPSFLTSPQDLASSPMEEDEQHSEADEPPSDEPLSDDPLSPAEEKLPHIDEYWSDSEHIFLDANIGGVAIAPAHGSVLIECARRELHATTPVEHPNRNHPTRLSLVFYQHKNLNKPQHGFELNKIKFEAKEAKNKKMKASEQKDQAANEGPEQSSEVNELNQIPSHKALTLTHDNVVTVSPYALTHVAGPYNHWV", "test": "Fluorometric TET hydroxylase activity assay with purified TET1 enzyme", "type": "biochemical", "conditions": "screened at 10^−7 to 10^−4 M", "experimental": "Figure 4 and Table S1 show the dependence of TET1 activity on the concentration of compound 1.\nCompounds 1–6 were tested for the inhibition of the total 5mC hydroxylase TET enzyme using a purified TET1 enzyme (Active Motif, Carlsbad, CA, USA) by a fluorometric TET hydroxylase activity quantification kit (Abcam, Cambridge, UK). A total of 25 µg of purified TET1 protein was diluted in a TET assay buffer in a 5 mL volumetric flask, containing α-ketoglutarate and ferric sulfate. The concentrations of ascorbic acid, α-ketoglutarate, and ferric sulfate in the diluted TET assay buffer were 2, 1, and 0.1 mM, respectively. Tested compounds were dissolved in DMSO to obtain a concentration of 0.01 M. DMSO solutions of compounds 1–6 were then diluted with a TET assay buffer to concentrations of 10^−6, 10^−5, 10^−4, and 10^−3 M (in 10% of DMSO). Subsequently, 50 μL of the final TET assay buffer containing the TET1 protein and 5 μL of chelator’s solution was applied to each sample well. In control wells (TET1 without inhibitors), 5 μL of the final TET assay buffer with 10% DMSO was used instead of chelator’s solution. The final concentrations of chelators in a well plate were 10^−7, 10^−6, 10^−5, 10^−4, and 0 M with less than 1% of final concentration of DMSO. The following steps were performed according to manufacturer’s protocol. The TET1 protein converts methylated substrate to hydroxymethylated products, which could be recognized by a specific antibody. We determined the residual activity of the TET1 protein by measuring a fluorescence intensity on an enzyme-linked immunoabsorbent assay reader (ELISA), Infinite® 200 PRO (Tecan, Switzerland, Switzerland), at an excitation wavelength at 530 nm and an emission wavelength at 590 nm. Each concentration was measured twice within one test, and each test was repeated three times. IC50 values of active inhibitors were determined using GraphPad Prism 8 via nonlinear regression."}, "H-1299 cells": {"test_system": "H-1299 cells", "test": "MTT cytotoxicity assay, H-1299", "type": "cell-based, human", "experimental": "(§1) The effects of the tested compounds 1–6 on HF-P4, U-118 MG, H1299, BT-20, and Caov-3 cell lines were evaluated by the MTT assay during 48 h treatment (Table 2 and Tables S2–S31). In all tested compounds, we recognized a difference in cytotoxicity between healthy cells (HF-P4) and cancer cell lines (BT-20, Caov-3, and H-1299). […] In the case of ovarian cancer, the authors discovered oncogenic and poor prognosis roles of TET1 in epithelial ovarian carcinoma (EOC). TET1 is believed to demethylate the epigenome and activate numerous oncogenic pathways in EOC. The aforementioned study presents a new mechanism where TET1 contributes to tumor development through collaboration with CK2α [21]. The overexpression of the TET1 protein was also found in triple negative breast cancer and was associated with an activation of PI3K/mTOR pathway and decreased overall survival.\n(§2) A human glioblastoma cell line (U118-MG) and a human non-small-cell lung carcinoma cell line (H1299) were used for the cytotoxicity assay (MTT). Both cell lines were generously supplied by Dr. M. Masařik, PhD, Department of Pathological physiology, Masaryk University, Czech Republic. U118-MG cells were cultivated under standard conditions in Dulbecco’s modified Eagle’s medium (ATCC, Manassas, VA, USA) supplemented with 10% FBS and streptomycin (100 μg/mL) at 37 °C at a 5% CO2 atmosphere. H1299 cells were cultivated under standard conditions in RPMI 1640 (BioTech, Prague, Czech Republic) medium supplemented with 10% FBS and streptomycin (100 μg/mL) at 37 °C at a 5% CO2 atmosphere.\n(§3) For the cytotoxicity assay, we used the following cell lines: human glioblastoma cell line U118-MG, human mammary gland/breast cell line BT-20, human ovary adenocarcinoma cell line Caov-3, and non-small-cell lung carcinoma H-1299. As previously mentioned, these cell lines contain a high level of the TET1 protein, which corresponds to a lower overall survival. In addition to these cell cultures, we used the human dermal fibroblast cell line HF-P4 as a healthy control. Determination of cytotoxicity was performed using the MTT [3-(4,5-dimethylthiazol-2-yl)-2,5-diphenyltetrazolium bromide] colorimetric assay. Viable cells from each cell line were cultured in 96-well plates (VWR, Stříbrná Skalice, Czech Republic) at a density of 1.0 × 10^5 cells per well and allowed to grow for 24 h in 200 μL of recommended medium. After a 1-day incubation, the medium was replaced with solutions of compounds 1–6 at concentration ranges of 0.1–20 μM. Each concentration was measured four times within one test, and the entire test was repeated three times. Tested compounds 1–6 were dissolved in DMSO and then diluted with corresponding medium to a final volume of 200 μL (maximum 1% DMSO). After 48 h exposure, cells were treated with 175 μL of MTT solution (P-LAB, Prague, Czech Republic) for 2 h. In the next step, MTT solution was removed, and 125 μL of DMSO (Penta, Prague, Czech Republic) was added to solubilize dark crystals of formazan formed in intact cells, and absorbance was measured at 570 nm by the enzyme-linked immunoabsorbent assay reader Infinite® 200 PRO (Tecan, Männedorf, Switzerland). The final DMSO concentration was smaller than 1% (v/v). The absorbance of untreated cells was considered 100%, and IC50 values were calculated by the GraphPad Prism 8 software. As a parameter for cytotoxicity, we used a concentration that inhibits 50% of cell growth (IC50)."}, "U-118 MG cells": {"test_system": "U-118 MG cells", "test": "MTT cytotoxicity assay, U-118 MG", "type": "cell-based, human", "conditions": "48 h", "experimental": "as §1, §2, §3"}}, "note": "“And” between values parts separate entries of the source, which are not always exact repeats. Equal entries are not always repeated. “Also recorded” adds a separate entry of the source.", "data": [{"smiles": "CCN(CC)c1ccc(/C=N/NC(=O)c2ccc(-c3cc4c(cc(-c5ccc(C(=O)N/N=C/c6ccc(N(CC)CC)cc6O)cc5)n4-c4ccc(C)cc4)n3-c3ccc(C)cc3)cc2)c(O)c1", "note": "[Compound 2]", "values": [{"measurement": "inhibitory activity towards TET1", "setting": "TET1 protein", "value": "no inhibitory effect; also recorded: no significant inhibition"}, {"measurement": "Cell viability %", "setting": "H-1299 cells; H-1299, 100 nM, 48 h, repeats, 0.1 µM", "value": "61.37% and 71.3%"}, {"measurement": "Cell viability %", "setting": "H-1299 cells; H-1299, 500 nM, 48 h, repeats, 0.5 µM", "value": "66.22% and 72.36%"}, {"measurement": "Cell viability %", "setting": "H-1299 cells; H-1299, 750 nM, 48 h, repeats, 0.75 µM", "value": "70.74% and 81.49%"}, {"measurement": "Cell viability %", "setting": "H-1299 cells; H-1299, 1 uM, 48 h, repeats, 1 µM", "value": "69.87% and 82.47%"}, {"measurement": "Cell viability %", "setting": "H-1299 cells; H-1299, 2.5 uM, 48 h, repeats, 2.5 µM", "value": "66.9068% and 60.82%"}, {"measurement": "Cell viability %", "setting": "H-1299 cells; H-1299, 5 uM, 48 h, repeats, 5 µM", "value": "53.26% and 57.69%"}, {"measurement": "Cell viability %", "setting": "H-1299 cells; H-1299, 7.5 uM, 48 h, repeats, 7.5 µM", "value": "36.17% and 50.75%"}, {"measurement": "Cell viability %", "setting": "H-1299 cells; H-1299, 10 uM, 48 h, repeats, 10 µM", "value": "38.48% and 47.35%"}, {"measurement": "Cell viability %", "setting": "H-1299 cells; H-1299, 15 uM, 48 h, repeats, 15 µM", "value": "39.64% and 37.79%"}, {"measurement": "Cell viability %", "setting": "H-1299 cells; H-1299, 20 uM, 48 h, repeats, 20 µM", "value": "32.04% and 28.82%"}, {"measurement": "viability at 0.1 µM", "setting": "H-1299 cells; Homo sapiens, NCI-H1299, 48 h, H-1299, 100 nM, repeats, read-out: Cell viability %", "value": 77.6, "unit": "%"}, {"measurement": "viability at 0.5 µM", "setting": "H-1299 cells; Homo sapiens, NCI-H1299, 48 h, H-1299, 500 nM, repeats, read-out: Cell viability %", "value": 71.5, "unit": "%"}, {"measurement": "viability at 0.75 µM", "setting": "H-1299 cells; Homo sapiens, NCI-H1299, 48 h, H-1299, 750 nM, repeats, read-out: Cell viability %", "value": 74.1, "unit": "%"}, {"measurement": "viability at 1 µM", "setting": "H-1299 cells; Homo sapiens, NCI-H1299, 48 h, H-1299, 1 uM, repeats, read-out: Cell viability %", "value": 72.4, "unit": "%"}, {"measurement": "viability at 2.5 µM", "setting": "H-1299 cells; Homo sapiens, NCI-H1299, 48 h, H-1299, 2.5 uM, repeats, read-out: Cell viability %", "value": 73.2, "unit": "%"}, {"measurement": "viability at 5 µM", "setting": "H-1299 cells; Homo sapiens, NCI-H1299, 48 h, H-1299, 5 uM, repeats, read-out: Cell viability %", "value": 53.2, "unit": "%"}, {"measurement": "viability at 7.5 µM", "setting": "H-1299 cells; Homo sapiens, NCI-H1299, 48 h, H-1299, 7.5 uM, repeats, read-out: Cell viability %", "value": 42.3, "unit": "%"}, {"measurement": "viability at 10 µM", "setting": "H-1299 cells; Homo sapiens, NCI-H1299, 48 h, H-1299, 10 uM, repeats, read-out: Cell viability %", "value": 45.5, "unit": "%"}, {"measurement": "viability at 15 µM", "setting": "H-1299 cells; Homo sapiens, NCI-H1299, 48 h, H-1299, 15 uM, repeats, read-out: Cell viability %", "value": 39.8, "unit": "%"}, {"measurement": "viability at 20 µM", "setting": "H-1299 cells; Homo sapiens, NCI-H1299, 48 h, H-1299, 20 uM, repeats, read-out: Cell viability %", "value": 28.6, "unit": "%"}, {"measurement": "IC50", "setting": "H-1299 cells; Homo sapiens, NCI-H1299, MTT, 48 h", "value": 8.94, "unit": "µM"}, {"measurement": "viability at 0.1 µM", "setting": "U-118 MG cells; Homo sapiens, U-118-MG, U-118 MG, 100 nM, repeats, read-out: Cell viability %", "value": 82.5, "unit": "%"}, {"measurement": "viability at 0.5 µM", "setting": "U-118 MG cells; Homo sapiens, U-118-MG, U-118 MG, 500 nM, repeats, read-out: Cell viability %", "value": 64, "unit": "%"}, {"measurement": "viability at 0.75 µM", "setting": "U-118 MG cells; Homo sapiens, U-118-MG, U-118 MG, 750 nM, repeats, read-out: Cell viability %", "value": 70, "unit": "%"}, {"measurement": "viability at 1 µM", "setting": "U-118 MG cells; Homo sapiens, U-118-MG, U-118 MG, 1 uM, repeats, read-out: Cell viability %", "value": 84.1, "unit": "%"}, {"measurement": "viability at 2.5 µM", "setting": "U-118 MG cells; Homo sapiens, U-118-MG, U-118 MG, 2.5 uM, repeats, read-out: Cell viability %", "value": 70.7, "unit": "%"}, {"measurement": "viability at 5 µM", "setting": "U-118 MG cells; Homo sapiens, U-118-MG, U-118 MG, 5 uM, repeats, read-out: Cell viability %", "value": 62.1, "unit": "%"}, {"measurement": "viability at 7.5 µM", "setting": "U-118 MG cells; Homo sapiens, U-118-MG, U-118 MG, 7.5 uM, repeats, read-out: Cell viability %", "value": 66.3, "unit": "%"}, {"measurement": "viability at 10 µM", "setting": "U-118 MG cells; Homo sapiens, U-118-MG, U-118 MG, 10 uM, repeats, read-out: Cell viability %", "value": 57.9, "unit": "%"}, {"measurement": "viability at 15 µM", "setting": "U-118 MG cells; Homo sapiens, U-118-MG, U-118 MG, 15 uM, repeats, read-out: Cell viability %", "value": 51.1, "unit": "%"}, {"measurement": "viability at 20 µM", "setting": "U-118 MG cells; Homo sapiens, U-118-MG, U-118 MG, 20 uM, repeats, read-out: Cell viability %", "value": 39.1, "unit": "%"}, {"measurement": "IC50", "setting": "U-118 MG cells; Homo sapiens, U-118-MG, MTT", "value": "> 20", "unit": "µM"}, {"measurement": "Cell viability %", "setting": "U-118 MG cells; U-118 MG, 100 nM, repeats, 0.1 µM", "value": 87.05, "unit": "%"}, {"measurement": "Cell viability %", "setting": "U-118 MG cells; U-118 MG, 500 nM, repeats, 0.5 µM", "value": "68.29% and 66.76%"}, {"measurement": "Cell viability %", "setting": "U-118 MG cells; U-118 MG, 750 nM, repeats, 0.75 µM", "value": "77.02% and 67.38%"}, {"measurement": "Cell viability %", "setting": "U-118 MG cells; U-118 MG, 1 uM, repeats", "value": "82.08% and 80.29%"}, {"measurement": "Cell viability %", "setting": "U-118 MG cells; U-118 MG, 2.5 uM, repeats", "value": "64.2773% and 70.34%"}, {"measurement": "Cell viability %", "setting": "U-118 MG cells; U-118 MG, 5 uM, repeats", "value": "65.5% and 62.23%"}, {"measurement": "Cell viability %", "setting": "U-118 MG cells; U-118 MG, 7.5 uM, repeats", "value": "62.32% and 65.79%"}, {"measurement": "Cell viability %", "setting": "U-118 MG cells; U-118 MG, 10 uM, repeats", "value": "65.41% and 61.07%"}, {"measurement": "Cell viability %", "setting": "U-118 MG cells; U-118 MG, 15 uM, repeats", "value": "55.67% and 56.45%"}, {"measurement": "Cell viability %", "setting": "U-118 MG cells; U-118 MG, 20 uM, repeats", "value": "44.6621% and 48.66%"}]}]}
